Values after ≈ are worked out from the molar mass of the structure shown.
What was measured:
Mannheimia haemolytica = experiment: minimum inhibitory concentration (MIC)
Procedure: (§1)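 Broth microdilution MIC (Sensititre BOPO7F bovine plate, CLSI methods) of 19 antimicrobials against field isolates of P. multocida, M. haemolytica, H. somni (deep nasopharyngeal swabs) and E. coli, Enterococcus spp. (rectal swabs) from weaned dairy heifers. Incubation 16-24 h at 35 C. MIC is the lowest concentration preventing visible growth. Values with <= or > lie at the tested range limits. Trimethoprim-sulfamethoxazole is given as the trimethoprim component of a 1:19 mixture.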

Enterococcus spp. = experiment: minimum inhibitory concentration (MIC)
Procedure: as §1

CN[C@@H]1[C@H](O)[C@H](NC)[C@H]2O[C@@]3(O)C(=O)C[C@@H](C)O[C@H]3O[C@@H]2[C@H]1O [Spectinomycin]
minimum inhibitory concentration [mg/L]
Settings	Enterococcus spp.	Mannheimia haemolytica
isolate (source animal id): 2	64 (≈ 193 µM)	–
isolate (source animal id): 8	–	32 (≈ 96.3 µM)
isolate (source animal id): 13	–	32 (≈ 96.3 µM)
isolate (source animal id): 18	–	32 (≈ 96.3 µM)
isolate (source animal id): 21	–	32 (≈ 96.3 µM)
isolate (source animal id): 25	–	32 (≈ 96.3 µM)
isolate (source animal id): 27	–	32 (≈ 96.3 µM)
isolate (source animal id): 28	–	> 64
isolate (source animal id): 30	–	32 (≈ 96.3 µM)
isolate (source animal id): 31	–	> 64
isolate (source animal id): 32	–	32 (≈ 96.3 µM)
isolate (source animal id): 34	–	32 (≈ 96.3 µM)
isolate (source animal id): 35	> 64	–
isolate (source animal id): 36	–	32 (≈ 96.3 µM)
isolate (source animal id): 37	–	32 (≈ 96.3 µM)
isolate (source animal id): 40	–	32 (≈ 96.3 µM)
isolate (source animal id): 41	–	32 (≈ 96.3 µM)
isolate (source animal id): 42	64 (≈ 193 µM)	–
isolate (source animal id): 43	–	32 (≈ 96.3 µM)
isolate (source animal id): 44	64 (≈ 193 µM)	–
isolate (source animal id): 46	–	32 (≈ 96.3 µM)
isolate (source animal id): 49	–	32 (≈ 96.3 µM)
isolate (source animal id): 50	–	32 (≈ 96.3 µM)
isolate (source animal id): 51	–	32 (≈ 96.3 µM)
isolate (source animal id): 52	–	32 (≈ 96.3 µM)
isolate (source animal id): 53	–	32 (≈ 96.3 µM)
isolate (source animal id): 55	–	32 (≈ 96.3 µM)
isolate (source animal id): 56	–	32 (≈ 96.3 µM)
isolate (source animal id): 57	–	> 64
isolate (source animal id): 79	64 (≈ 193 µM)	–
isolate (source animal id): 88	32 (≈ 96.3 µM)	–
isolate (source animal id): 91	32 (≈ 96.3 µM)	–
isolate (source animal id): 92	16 (≈ 48.1 µM)	–
isolate (source animal id): 100	–	> 64
isolate (source animal id): 103	–	32 (≈ 96.3 µM)
isolate (source animal id): 107	–	32 (≈ 96.3 µM)
isolate (source animal id): 108	–	> 64
isolate (source animal id): 111	32 (≈ 96.3 µM)	–
isolate (source animal id): 112	–	32 (≈ 96.3 µM)
isolate (source animal id): 113	–	> 64
isolate (source animal id): 121	–	32 (≈ 96.3 µM)
isolate (source animal id): 122	> 64	32 (≈ 96.3 µM)
isolate (source animal id): 123	64 (≈ 193 µM)	> 64
isolate (source animal id): 126	–	32 (≈ 96.3 µM)
isolate (source animal id): 133	64 (≈ 193 µM)	32 (≈ 96.3 µM)
isolate (source animal id): 135	–	> 64
isolate (source animal id): 138	–	32 (≈ 96.3 µM)
isolate (source animal id): 141	–	> 64
isolate (source animal id): 142	–	32 (≈ 96.3 µM)
isolate (source animal id): 145	–	16 (≈ 48.1 µM)
isolate (source animal id): 149	–	32 (≈ 96.3 µM)
isolate (source animal id): 151	–	32 (≈ 96.3 µM)
isolate (source animal id): 152	–	16 (≈ 48.1 µM)
isolate (source animal id): 154	–	32 (≈ 96.3 µM)
isolate (source animal id): 158	64 (≈ 193 µM)	–
isolate (source animal id): 159	–	16 (≈ 48.1 µM)
isolate (source animal id): 162	–	16 (≈ 48.1 µM)
isolate (source animal id): 168	64 (≈ 193 µM)	–
isolate (source animal id): 169	64 (≈ 193 µM)	–
isolate (source animal id): 170	–	32 (≈ 96.3 µM)
isolate (source animal id): 171	64 (≈ 193 µM)	32 (≈ 96.3 µM)
isolate (source animal id): 172	–	32 (≈ 96.3 µM)
isolate (source animal id): 173	–	32 (≈ 96.3 µM)
isolate (source animal id): 175	64 (≈ 193 µM)	–
isolate (source animal id): 177	64 (≈ 193 µM)	–
isolate (source animal id): 179	–	32 (≈ 96.3 µM)
isolate (source animal id): 180	–	32 (≈ 96.3 µM)
isolate (source animal id): 181	64 (≈ 193 µM)	–
isolate (source animal id): 182	64 (≈ 193 µM)	–
isolate (source animal id): 183	64 (≈ 193 µM)	32 (≈ 96.3 µM)
isolate (source animal id): 186	–	32 (≈ 96.3 µM)
isolate (source animal id): 187	64 (≈ 193 µM)	32 (≈ 96.3 µM)
isolate (source animal id): 188	–	32 (≈ 96.3 µM)
isolate (source animal id): 190	64 (≈ 193 µM)	32 (≈ 96.3 µM)
isolate (source animal id): 191	–	32 (≈ 96.3 µM)
isolate (source animal id): 192	–	32 (≈ 96.3 µM)
isolate (source animal id): 194	64 (≈ 193 µM)	–
isolate (source animal id): 195	64 (≈ 193 µM)	–
isolate (source animal id): 197	64 (≈ 193 µM)	–
isolate (source animal id): 201	–	32 (≈ 96.3 µM)
isolate (source animal id): 202	–	32 (≈ 96.3 µM)
isolate (source animal id): 209	–	32 (≈ 96.3 µM)
isolate (source animal id): 211	64 (≈ 193 µM)	32 (≈ 96.3 µM)
isolate (source animal id): 214	64 (≈ 193 µM)	–
isolate (source animal id): 220	–	32 (≈ 96.3 µM)
isolate (source animal id): 221	–	32 (≈ 96.3 µM)
isolate (source animal id): 222	64 (≈ 193 µM)	–
isolate (source animal id): 223	64 (≈ 193 µM)	≤ 8
isolate (source animal id): 228	64 (≈ 193 µM)	–
isolate (source animal id): 230	64 (≈ 193 µM)	–
isolate (source animal id): 233	–	32 (≈ 96.3 µM)
isolate (source animal id): 235	64 (≈ 193 µM)	–
isolate (source animal id): 236	64 (≈ 193 µM)	–
isolate (source animal id): 237	–	32 (≈ 96.3 µM)
isolate (source animal id): 239	64 (≈ 193 µM)	–
isolate (source animal id): 241	64 (≈ 193 µM)	32 (≈ 96.3 µM)
isolate (source animal id): 244	64 (≈ 193 µM)	–
isolate (source animal id): 246	64 (≈ 193 µM)	–
isolate (source animal id): 247	64 (≈ 193 µM)	–
isolate (source animal id): 250	64 (≈ 193 µM)	–
isolate (source animal id): 252	64 (≈ 193 µM)	32 (≈ 96.3 µM)
isolate (source animal id): 253	–	> 64
isolate (source animal id): 259	–	32 (≈ 96.3 µM)
isolate (source animal id): 260	–	> 64
isolate (source animal id): 262	–	32 (≈ 96.3 µM)
isolate (source animal id): 268	32 (≈ 96.3 µM)	–
isolate (source animal id): 282	16 (≈ 48.1 µM)	32 (≈ 96.3 µM)
isolate (source animal id): 285	> 64	–
isolate (source animal id): 287	–	32 (≈ 96.3 µM)
isolate (source animal id): 288	–	32 (≈ 96.3 µM)
isolate (source animal id): 289	64 (≈ 193 µM)	–
isolate (source animal id): 290	64 (≈ 193 µM)	–
isolate (source animal id): 291	–	32 (≈ 96.3 µM)
isolate (source animal id): 293	–	16 (≈ 48.1 µM)
isolate (source animal id): 296	64 (≈ 193 µM)	–
isolate (source animal id): 298	64 (≈ 193 µM)	16 (≈ 48.1 µM)
isolate (source animal id): 299	–	32 (≈ 96.3 µM)
isolate (source animal id): 300	–	32 (≈ 96.3 µM)
isolate (source animal id): 301	32 (≈ 96.3 µM)	–
isolate (source animal id): 302	–	32 (≈ 96.3 µM)
isolate (source animal id): 304	–	32 (≈ 96.3 µM)
isolate (source animal id): 306	–	32 (≈ 96.3 µM)
isolate (source animal id): 308	–	32 (≈ 96.3 µM)
isolate (source animal id): 309	–	32 (≈ 96.3 µM)
isolate (source animal id): 310	64 (≈ 193 µM)	–
isolate (source animal id): 313	–	16 (≈ 48.1 µM)
isolate (source animal id): 318	–	16 (≈ 48.1 µM)
isolate (source animal id): 320	64 (≈ 193 µM)	32 (≈ 96.3 µM)
isolate (source animal id): 321	–	16 (≈ 48.1 µM)
isolate (source animal id): 323	–	32 (≈ 96.3 µM)
isolate (source animal id): 324	–	16 (≈ 48.1 µM)
isolate (source animal id): 326	–	16 (≈ 48.1 µM)
isolate (source animal id): 328	–	16 (≈ 48.1 µM)
isolate (source animal id): 329	–	16 (≈ 48.1 µM)
isolate (source animal id): 331	64 (≈ 193 µM)	–
isolate (source animal id): 333	64 (≈ 193 µM)	16 (≈ 48.1 µM)
isolate (source animal id): 335	–	16 (≈ 48.1 µM)
isolate (source animal id): 338	–	16 (≈ 48.1 µM)
isolate (source animal id): 341	64 (≈ 193 µM)	–
